We go through five molecules from paper PMC6302903, “Protein and Chemical Determinants of BL-1249 Action and Selectivity for K2P Channels” (ACS Chemical Neuroscience, 2018).

The target of one test is T1, K2P2.1(TREK-1) (Mus musculus, UniProt P97438).
T1 sequence (P97438 1-411 isoform P97438-2): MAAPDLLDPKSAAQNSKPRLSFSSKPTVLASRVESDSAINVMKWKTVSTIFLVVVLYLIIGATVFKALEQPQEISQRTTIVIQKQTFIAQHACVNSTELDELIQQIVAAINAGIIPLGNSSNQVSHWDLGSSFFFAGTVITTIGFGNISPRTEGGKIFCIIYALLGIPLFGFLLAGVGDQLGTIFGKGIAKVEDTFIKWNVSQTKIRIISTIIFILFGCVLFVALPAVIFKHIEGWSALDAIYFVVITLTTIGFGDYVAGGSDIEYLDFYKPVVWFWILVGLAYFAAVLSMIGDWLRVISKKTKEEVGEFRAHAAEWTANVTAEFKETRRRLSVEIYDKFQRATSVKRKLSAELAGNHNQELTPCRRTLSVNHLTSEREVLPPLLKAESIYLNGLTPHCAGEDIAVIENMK
The test can be described thus: TEVC of K2P2.1(TREK-1) in Xenopus oocytes. The format is cell-based. Further details: expressed in transfected cells; host or cells: Xenopus laevis oocytes injected with mRNA made from pGEMHE/pMO. Conditions: for effect on K2P2.1(TREK-1) current (in words): dose-response. The text has this:
(§1) Constructs for murine K2P channels, including K2P2.1(TREK-1) (Gene ID 16526), K2P10.1(TREK-2) (Gene ID 72258), K2P4.1(TRAAK) (Gene ID 16528), K2P5.1(TASK-2) (Gene ID 16529), K2P3.1(TASK-1) (Gene ID 16527), K2P9.1(TASK-3) (Gene ID 223604), and K2P18.1(TRESK) (Gene ID 332396) in pGEMHE/pMO, were used for Xenopus oocyte experiments as previously described.[10],[26] Murine K2P2.1(TREK-1) (Gene ID 16526) was expressed in HEK-293 cells using a pIRES-EGFP construct as previously described.[26] Murine K2P13.1(THIK-1) (Gene ID 217826) and K2P1.1(TWIK-1) (Gene ID 16525) were cloned into pGEMHE/pMO for use in Xenopus oocytes. Chimeras were designed using EMBOSS Needle pairwise sequence alignment tool[58] to match homologous helices in K2P2.1(TREK-1) and K2P4.1(TRAAK) and were assembled using the Gibson assembly method.[59] Chimera boundaries are Thr152 (TREK-1/AAK M2-C), Trp199 (TREK-1/AAK M3-C), Y272 (TREK-1/AAK M4-C), Thr114 (TRAAK/EK-1 M2-C), Trp161 (TRAAK/EK-1 M3-C), and Tyr234 K2P4.1(TRAAK). All sequences were verified using DNA sequencing.
(§2) Xenopus laevis oocytes were harvested in accordance with UCSF IACUC protocol AN129690 and digested in calcium-free ND-96 (96 mM NaCl, 2 mM KCl, 3.8 mM MgCl2) immediately following harvest, as previously described.[6],[10] Digested oocytes were maintained in standard ND96 (96 mM NaCl, 2 mM KCl, 1.8 mM CaCl2, 2 mM MgCl2) with antibiotics (100 units mL^–1 penicillin, 100 μg mL^–1 streptomycin, 50 μg mL^–1 gentimycin). Defolliculated stage V–VI oocytes were injected with 0.2–6.0 ng of mRNA in 50 nL, and currents were recorded 24–48 h after injection. mRNA was synthesized from plasmid DNA using mMessage mMachine Kit (T7 promoter, Ambion, Life Technologies) and purified using RNEasy Kit (Qiagen). Injected oocytes were impaled with two standard microelectrodes (0.2–1.0 MΩ) filled with 3 M KCl and subjected to constant perfusion of standard ND96 during recording. Currents were amplified using the GeneClamp 500B (MDS Analytical Technologies) amplifier controlled by the pClamp software (Molecular Devices). Data were digitized at 1 kHz using Digidata 1332A (MDS Analytical Technologies). For all experiments with small molecules, basal currents were evoked using 1 s long ramps from −150 to +50 mV under constant perfusion of ND96. Once stabilized basal currents were recorded, compounds were perfused at various concentrations in standard ND96 and currents were allowed to increase to stabilization before recording final current. Fold activation upon compound application is expressed as I/I0 (0 mV), derived from the current at 0 mV in the presence of compound divided by the basal current at 0 mV in standard ND96 without compound. Data were analyzed and plotted using Graphpad Prism Version 5 (GraphPad Software, San Diego California USA, www.graphpad.com). […] In the case of BL-1249-acid EC50 estimation, upper bound of I/I0 was set to 20 to account for the strong stimulation of BL-1249-acid.

Another test deals with T2, K2P4.1(TRAAK) (Mus musculus, UniProt O88454).
T2 construct: expressed in transfected cells; host or cells: Xenopus laevis oocytes injected with mRNA made from pGEMHE/pMO
T2 sequence (O88454 1-398): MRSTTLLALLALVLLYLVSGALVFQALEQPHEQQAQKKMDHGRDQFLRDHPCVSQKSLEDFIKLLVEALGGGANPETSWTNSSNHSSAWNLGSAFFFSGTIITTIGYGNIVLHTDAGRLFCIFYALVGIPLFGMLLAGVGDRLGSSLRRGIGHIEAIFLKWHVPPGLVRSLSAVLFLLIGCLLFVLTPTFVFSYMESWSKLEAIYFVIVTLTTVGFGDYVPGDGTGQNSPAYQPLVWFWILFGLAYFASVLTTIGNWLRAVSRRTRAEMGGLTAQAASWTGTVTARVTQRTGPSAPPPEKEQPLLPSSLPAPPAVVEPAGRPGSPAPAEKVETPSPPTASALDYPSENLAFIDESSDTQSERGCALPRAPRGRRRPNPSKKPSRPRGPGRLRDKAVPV
The test can be described thus: TEVC of K2P4.1(TRAAK) in Xenopus oocytes. The format is cell-based. Conditions: I/I0 at 0 mV.
From the text: as §1, §2

The next test has as its system K2P18.1(TRESK). Further details: method as in PMID 27641472. Conditions: cited from earlier work.
A further test addresses T3, TREK-1/AAK M3-C (Mus musculus, UniProt O88454+P97438).
T3 construct: Trp199 (TREK-1/AAK M3-C); expressed in transfected cells; host or cells: Xenopus laevis oocytes, mRNA injected; chimera built by Gibson assembly
T3 sequence (P97438+O88454 with tags, fused parts or gaps P97438:N200H/P97438:S202P/P97438:Q203P/P97438:T204G/P97438:K205L/P97438:I206V/P97438:I208S/P97438:I209L/P97438:T211A/P97438:I212V/P97438:I213L/P97438:I215L/P97438:F217I/P97438:V220L/P97438:A224L/P97438:L225T/P97438:A227T/P97438:V228F/P97438:I229V/P97438:K231S/P97438:H232Y/P97438:I233M/P97438:G235S/P97438:A238K/P97438:D240E/P97438:V246I/P97438:I247V/P97438:I252V/P97438:A259P/P97438:G261D/P97438:S262G/P97438:D263T/P97438:I264G/P97438:E265Q/P97438:Y266N/P97438:L267S/P97438:D268P/P97438:F269A/P97438:K271Q/P97438:V273L/P97438:V280F/P97438:A287S/P97438:S290T/P97438:M291T/P97438:D294N): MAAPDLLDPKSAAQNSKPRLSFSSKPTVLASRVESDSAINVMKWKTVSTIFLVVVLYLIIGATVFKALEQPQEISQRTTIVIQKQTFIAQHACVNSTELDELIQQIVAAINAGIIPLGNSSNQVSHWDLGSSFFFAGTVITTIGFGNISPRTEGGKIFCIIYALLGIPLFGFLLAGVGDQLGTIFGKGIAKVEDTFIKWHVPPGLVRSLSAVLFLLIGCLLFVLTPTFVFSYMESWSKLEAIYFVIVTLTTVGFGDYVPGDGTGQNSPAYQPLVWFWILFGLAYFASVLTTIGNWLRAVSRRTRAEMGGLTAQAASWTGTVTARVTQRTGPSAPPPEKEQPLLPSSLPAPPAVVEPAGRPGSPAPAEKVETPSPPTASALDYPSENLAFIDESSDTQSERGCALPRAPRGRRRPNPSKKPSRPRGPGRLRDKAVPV
Briefly: TEVC of chimera TREK-1/AAK M3-C. The following applies: Xenopus oocytes. The format is cell-based.

The next test has as its target T4, TREK-1/AAK M4-C (Mus musculus, UniProt O88454+P97438).
T4 construct: Y272 (TREK-1/AAK M4-C); expressed in transfected cells; host or cells: Xenopus laevis oocytes, mRNA injected; chimera built by Gibson assembly
T4 sequence (P97438+O88454 with tags, fused parts or gaps P97438:V273L/P97438:V280F/P97438:A287S/P97438:S290T/P97438:M291T/P97438:D294N): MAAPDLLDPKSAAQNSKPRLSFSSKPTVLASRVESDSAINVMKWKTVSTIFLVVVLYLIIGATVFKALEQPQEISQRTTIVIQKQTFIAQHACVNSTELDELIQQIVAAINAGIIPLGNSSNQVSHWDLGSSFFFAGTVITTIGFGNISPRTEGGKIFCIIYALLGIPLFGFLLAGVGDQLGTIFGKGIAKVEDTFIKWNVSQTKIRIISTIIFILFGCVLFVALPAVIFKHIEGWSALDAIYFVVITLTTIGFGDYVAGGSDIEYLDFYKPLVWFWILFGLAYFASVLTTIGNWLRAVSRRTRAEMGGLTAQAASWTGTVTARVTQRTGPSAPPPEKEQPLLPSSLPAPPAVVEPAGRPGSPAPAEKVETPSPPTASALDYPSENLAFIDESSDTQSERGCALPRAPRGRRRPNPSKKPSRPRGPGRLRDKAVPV
Briefly: TEVC of chimera TREK-1/AAK M4-C. The format is cell-based. The following applies: Xenopus oocytes.

A further test has as its target T5, TRAAK/EK-1 M3-C (Mus musculus, UniProt O88454+P97438, A173T/A231F/D223G/E202D/F190V/F242V/G166T/G224S/G226I/H162N/I179F/I208V/K200A/L167K/L171I/L175I/L177I/L182V/L186A/L235V/M195I/N228Y/N256D/P164S/P165Q/P221A/P230D/Q227E/Q233K/S170I/S193K/S197G/S229L/S249A/T187L/T189A/T225D/T252S/T253M/V168I/V174I/V191I/V209I/V214I/Y194H).
T5 construct: Trp161 (TRAAK/EK-1 M3-C); expressed in transfected cells; host or cells: Xenopus laevis oocytes, mRNA injected; chimera built by Gibson assembly
The test can be described thus: TEVC of chimera TRAAK/EK-1 M3-C. The format is cell-based. Conditions: Xenopus oocytes.

The next test concerns the target TREK-1/AAK M2-C (Mus musculus, UniProt O88454+P97438). The test can be described thus: TEVC of chimera TREK-1/AAK M2-C. The format is cell-based. The following applies: Xenopus oocytes.
The target in a further test is T6, TRAAK/EK-1 M2-C (Mus musculus, UniProt O88454+P97438, A151S/D143N/F160Y/H141A/P165L/Q138H/R166H/S147A/S164V/V139S/V154I).
T6 construct: Thr114 (TRAAK/EK-1 M2-C); expressed in transfected cells; host or cells: Xenopus laevis oocytes, mRNA injected; chimera built by Gibson assembly
The test can be described thus: TEVC of chimera TRAAK/EK-1 M2-C. The format is cell-based. Conditions: Xenopus oocytes.

The target in another test is T7, TRAAK/EK-1 M4-C (Mus musculus, UniProt O88454+P97438, F242V/L235V/N256D/S249A/T252S/T253M).
T7 construct: and Tyr234 K2P4.1(TRAAK); expressed in transfected cells; host or cells: Xenopus laevis oocytes, mRNA injected; chimera built by Gibson assembly
The test can be described thus: TEVC of chimera TRAAK/EK-1 M4-C. The format is cell-based. The following applies: Xenopus oocytes.

Setting [1] is: extracellular application, fold activation I/I0 at 0 mV.

T5 sequence (O88454+P97438 fused with the stated changes): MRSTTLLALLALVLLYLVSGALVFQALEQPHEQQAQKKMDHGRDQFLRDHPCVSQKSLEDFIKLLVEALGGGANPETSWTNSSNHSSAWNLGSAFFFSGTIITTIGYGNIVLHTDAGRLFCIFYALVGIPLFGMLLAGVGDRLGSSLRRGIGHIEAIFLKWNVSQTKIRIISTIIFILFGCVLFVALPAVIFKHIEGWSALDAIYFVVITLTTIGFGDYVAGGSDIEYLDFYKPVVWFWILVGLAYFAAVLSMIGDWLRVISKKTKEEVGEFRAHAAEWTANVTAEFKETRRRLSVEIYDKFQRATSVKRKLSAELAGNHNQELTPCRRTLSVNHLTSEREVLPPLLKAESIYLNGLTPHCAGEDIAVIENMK
T7 sequence (O88454+P97438 fused with the stated changes): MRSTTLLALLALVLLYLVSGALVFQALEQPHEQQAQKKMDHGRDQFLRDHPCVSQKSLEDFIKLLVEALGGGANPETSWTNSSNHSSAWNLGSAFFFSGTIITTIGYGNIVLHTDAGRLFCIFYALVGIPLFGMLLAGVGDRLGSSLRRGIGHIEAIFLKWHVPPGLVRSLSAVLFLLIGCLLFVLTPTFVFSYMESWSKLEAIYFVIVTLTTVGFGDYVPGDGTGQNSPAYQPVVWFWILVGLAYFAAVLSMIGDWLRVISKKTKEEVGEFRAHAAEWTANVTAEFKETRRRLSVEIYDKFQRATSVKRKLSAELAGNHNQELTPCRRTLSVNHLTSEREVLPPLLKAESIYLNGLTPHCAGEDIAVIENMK
T6 sequence (O88454+P97438 fused with the stated changes): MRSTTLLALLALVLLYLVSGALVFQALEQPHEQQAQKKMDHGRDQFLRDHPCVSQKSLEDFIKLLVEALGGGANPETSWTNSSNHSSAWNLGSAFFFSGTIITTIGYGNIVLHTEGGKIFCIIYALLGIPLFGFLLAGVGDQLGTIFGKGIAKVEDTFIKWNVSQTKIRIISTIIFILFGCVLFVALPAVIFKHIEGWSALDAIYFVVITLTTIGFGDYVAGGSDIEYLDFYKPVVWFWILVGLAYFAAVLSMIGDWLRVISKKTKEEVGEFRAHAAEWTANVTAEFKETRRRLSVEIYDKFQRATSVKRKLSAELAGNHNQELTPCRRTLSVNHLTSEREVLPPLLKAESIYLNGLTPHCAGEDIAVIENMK
Sequence of TREK-1/AAK M2-C (P97438 16-167, one chain of several): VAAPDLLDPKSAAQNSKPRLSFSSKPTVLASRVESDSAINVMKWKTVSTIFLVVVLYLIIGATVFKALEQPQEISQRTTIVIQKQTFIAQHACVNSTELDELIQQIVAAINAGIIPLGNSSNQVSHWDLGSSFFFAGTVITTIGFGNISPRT

Turning to `c1ccc(Nc2ccccc2-c2nnn[nH]2)cc1` [BL-1249-Ph], the “effect on K2P2.1(TREK-1) current (in words)” value (“effect … (in words)” for short) on K2P2.1(TREK-1) is recorded as “only a small amount of stimulatory effect”. The EC50 on K2P2.1(TREK-1) (setting [1]) and on K2P4.1(TRAAK) was above 200 µM in each case.
`O=C(O)c1ccccc1Nc1cccc2c1CCCC2` [BL-1249-acid]: the “functional effect on K2P18.1(TRESK)” value in the test on K2P18.1(TRESK) is “inhibitor”. The “loss of potency on K2P2.1(TREK-1) relative to BL-1249-amide” value at K2P2.1(TREK-1) is listed as around 2 fold. Besides, the EC50 on K2P2.1(TREK-1) (EC50 estimated imposing an upper boundary of 20 (fold activation, I/I0)) is 44 ± 10 µM; on K2P4.1(TRAAK), above 200 µM. In addition, at K2P2.1(TREK-1), the “effect … (in words)” value is “stronger stimulatory effect on the current than either BL-1249 or BL-1249-amide”.
On to `NC(=O)c1ccccc1Nc1cccc2c1CCCC2` [BL-1249-amide], for which the half-maximal effective concentration (EC50) at K2P2.1(TREK-1) (setting [1]) is 22 ± 8 µM; at K2P4.1(TRAAK) it was above 200 µM.
Consider `c1ccc2c(c1)Nc1c(-c3nnn[nH]3)cccc1C21CCCCC1` [BL-1249-tricycle], for which the “effect … (in words)” value on K2P2.1(TREK-1) was “inhibition between 0.1 and 10 μM followed by activation at higher concentrations”. In addition, the figures for the EC50 on K2P2.1(TREK-1) (setting [1]) and on K2P4.1(TRAAK) were 34 ± 6 µM and 42 ± 9 µM, respectively.
Consider `CC1(C)c2cc(Cl)ccc2N(CCc2nn[nH]n2)c2ccc(Cl)cc21` [ML67-33], for which the EC50 on TREK-1/AAK M3-C came to 49 ± 22 µM; at TREK-1/AAK M4-C it was 42 ± 3 µM; on TRAAK/EK-1 M3-C, 44 ± 14 µM; at TREK-1/AAK M2-C, 42 ± 3 µM; on TRAAK/EK-1 M2-C it was 33 ± 1 µM; at TRAAK/EK-1 M4-C, 31 ± 3 µM.

Broadly, the EC50 is the concentration needed to bring the measured effect to its halfway point.
